{"source": "patent US20060116390A1", "about": "“Hepatitis c virus inhibitors” (priority 2003, published 2006)", "test_system": "HCV proteins in Rep5.1 cells (replicon cell line)", "assay": "Inhibitory activity of HCV: cell-based ELISA in replicon cell line Rep5.1 (decrease of HCV proteins)", "set-up": "species or system hepatitis C virus", "conditions": "Rep5.1 cells, 72 hours with drug", "summary_of_the_method": "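Rep5.1 replicon cells (5000/well, DMEM-10 with 500 μg/ml G418) were given serially diluted drug 4 h after seeding. After 72 h, cells were fixed in methanol/acetone and HCV proteins detected by cell-based ELISA using replicon-specific patient plasma antibodies. IC50 is the concentration giving 50% protein decrease versus the no-drug control.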", "key": {"[1]": {"conditions": "Hepatitis C virus, 72 h, concentration at which 50% of HCV proteins was decreased, Table 2, read-out: IC50"}, "[2]": {"conditions": "Hepatitis C virus, 72 h, decrease of HCV proteins measured by HCV antibody, Table 1, read-out: Level (IC50 values classified)"}, "[3]": {"conditions": "concentration at which 50% of HCV proteins was decreased, Table 2, read-out: IC50"}}, "note": "Read-outs that look alike come from different tables or passages of the source."}
{"smiles": "CC1=C(C(=O)OCCCc2sccc2C)C(CO)NC(=S)N1", "note": "(stereo not drawn) [17″, 4-hydroxymethyl-6-methyl-2-thioxo-1,2,3,4-tetrahydro-pyrimidine-5-carboxylic acid 3-(3-methyl-thiophen-2-yl)-propyl ester]", "values": [{"measurement": "IC50", "setting": "[1]", "value": 9, "unit": "µM"}, {"measurement": "IC50", "setting": "[2]", "value": "1 to 10", "unit": "µM"}]}
{"smiles": "CC1=C(C(=O)OCc2cc(F)cc(F)c2)C(CF)NC(=S)N1", "note": "(stereo not drawn) [69′, 4-fluoromethyl-6-methyl-2-thioxo-1,2,3,4-tetrahydro-pyrimidine-5-carboxylic acid 3,5-difluoro-benzyl ester]", "values": [{"measurement": "IC50", "setting": "[1]", "value": 3, "unit": "µM"}, {"measurement": "IC50", "setting": "[2]", "value": "1 to 10", "unit": "µM"}]}
{"smiles": "CC1=C(C(=O)OCCc2cccc(C(F)(F)F)c2)C(CO)NC(=S)N1", "note": "(stereo not drawn) [38″, 4-hydroxymethyl-6-methyl-2-thioxo-1,2,3,4-tetrahydro-pyrimidine-5-carboxylic acid 2-(3-trifluoromethyl-phenyl)-ethyl ester]", "values": [{"measurement": "IC50", "setting": "[1]", "value": "< 0.4", "unit": "µM"}, {"measurement": "IC50", "setting": "[2]", "value": "< 1", "unit": "µM"}]}
{"smiles": "COc1ccc(Cl)cc1CCOC(=O)C1=C(C)NC(=S)NC1CF", "note": "(stereo not drawn) [84′, 4-fluoromethyl-6-methyl-2-thioxo-1,2,3,4-tetrahydro-pyrimidine-5-carboxylic acid 2-(5-chloro-2-methoxy-phenyl)-ethyl ester]", "values": [{"measurement": "IC50", "setting": "[1]", "value": 0.9, "unit": "µM"}, {"measurement": "IC50", "setting": "[2]", "value": "< 1", "unit": "µM"}]}
{"smiles": "CC1=C(C(=O)OCC#Cc2ccsc2)CNC(=S)N1", "note": "[Compound 240, 6-methyl-2-thioxo-1,2,3,4-tetrahydro-pyrimidine-5-carboxylic acid 3-thiophen-3-yl-prop-2-inyl ester]", "values": [{"measurement": "IC50", "setting": "[3]", "value": "< 0.4", "unit": "µM"}]}
{"smiles": "CC1=C(C(=O)OCc2ccco2)CNC(=S)N1", "note": "[Compound 12, 6-methyl-2-thioxo-1,2,3,4-tetrahydro-pyrimidine-5-carboxylic acid furan-2-ylmethyl ester]", "values": [{"measurement": "IC50", "setting": "[1]", "value": 22, "unit": "µM"}, {"measurement": "IC50", "setting": "[2]", "value": "10 to 20", "unit": "µM"}]}
{"smiles": "CC1=C(C(=O)OCCSc2nc3ccccc3s2)CNC(=S)N1", "note": "[Compound 224, 6-methyl-2-thioxo-1,2,3,4-tetrahydro-pyrimidine-5-carboxylic acid 2-(benzothiazol-2-ylsulfanyl)-ethyl ester]", "values": [{"measurement": "IC50", "setting": "[1]", "value": 0.7, "unit": "µM"}, {"measurement": "IC50", "setting": "[2]", "value": "< 1", "unit": "µM"}]}
{"smiles": "CC1=C(C(=O)OCC2=Cc3ccccc3S2(=O)=O)CNC(=S)N1", "note": "[Compound 127, 6-methyl-2-thioxo-1,2,3,4-tetrahydro-pyrimidine-5-carboxylic acid 1,1-dioxo-1H-11^6-benzo[b]thiophen-2-ylmethyl ester]", "values": [{"measurement": "IC50", "setting": "[3]", "value": 3.5, "unit": "µM"}]}
{"smiles": "COc1ccc(CCOC(=O)C2=C(C)NC(=S)NC2)cc1", "note": "[Compound 92, 6-methyl-2-thioxo-1,2,3,4-tetrahydro-pyrimidine-5-carboxylic acid 2-(4-methoxy-phenyl)-ethyl ester]", "values": [{"measurement": "IC50", "setting": "[1]", "value": 1, "unit": "µM"}, {"measurement": "IC50", "setting": "[2]", "value": "< 1", "unit": "µM"}]}
{"smiles": "COCCN(C)c1ccc(CCCOC(=O)C2=C(C)NC(=S)NC2CF)cc1", "note": "(stereo not drawn) [59′, 4-fluoromethyl-6-methyl-2-thioxo-1,2,3,4-tetrahydro-pyrimidine-5-carboxylic acid 3-{4-[(2-methoxy-ethyl)-methyl-amino]-phenyl}-propyl ester]", "values": [{"measurement": "IC50", "setting": "[1]", "value": 34, "unit": "µM"}, {"measurement": "IC50", "setting": "[2]", "value": "> 20", "unit": "µM"}]}
{"smiles": "CCCC1=C(C(=O)OCc2ccccc2)CNC(=S)N1", "note": "[Compound 25, 6-propyl-2-thioxo-1,2,3,4-tetrahydro-pyrimidine-5-carboxylic acid benzyl ester]", "values": [{"measurement": "IC50", "setting": "[1]", "value": 2, "unit": "µM"}, {"measurement": "IC50", "setting": "[2]", "value": "1 to 10", "unit": "µM"}]}
{"smiles": "CC1=C(C(=O)OC2CCc3ccccc32)CNC(=S)N1", "note": "(stereo not drawn) [Compound 123, 6-methyl-2-thioxo-1,2,3,4-tetrahydro-pyrimidine-5-carboxylic acid indan-1-yl ester]", "values": [{"measurement": "IC50", "setting": "[1]", "value": 8, "unit": "µM"}, {"measurement": "IC50", "setting": "[2]", "value": "1 to 10", "unit": "µM"}]}
{"smiles": "CC1=C(C(=O)OCC2(c3ccc(Cl)cc3)CC2)C(CO)NC(=S)N1", "note": "(stereo not drawn) [52″, 4-hydroxymethyl-6-methyl-2-thioxo-1,2,3,4-tetrahydro-pyrimidine-5-carboxylic acid 1-(4-chloro-phenyl)-cyclopropylmethyl ester]", "values": [{"measurement": "IC50", "setting": "[1]", "value": 10, "unit": "µM"}, {"measurement": "IC50", "setting": "[2]", "value": "1 to 10", "unit": "µM"}]}
{"smiles": "CC1=C(C(=O)OCCc2ccc(N(C)C)cc2)C(CO)NC(=S)N1", "note": "(stereo not drawn) [12″, 4-hydroxymethyl-6-methyl-2-thioxo-1,2,3,4-tetrahydro-pyrimidine-5-carboxylic acid 2-(4-dimethylamino-phenyl)-ethyl ester]", "values": [{"measurement": "IC50", "setting": "[1]", "value": 31, "unit": "µM"}, {"measurement": "IC50", "setting": "[2]", "value": "> 20", "unit": "µM"}]}
{"smiles": "COc1ccc(COC(=O)C2=C(C)NC(=S)NC2CF)cc1Cl", "note": "(stereo not drawn) [82′, 4-fluoromethyl-6-methyl-2-thioxo-1,2,3,4-tetrahydro-pyrimidine-5-carboxylic acid 3-chloro-4-methoxy-benzyl ester]", "values": [{"measurement": "IC50", "setting": "[1]", "value": 2.5, "unit": "µM"}, {"measurement": "IC50", "setting": "[2]", "value": "1 to 10", "unit": "µM"}]}
{"smiles": "CC1=C(C(=O)OCc2cccc(C(F)(F)F)c2)CNC(=S)N1", "note": "[Compound 101, 6-methyl-2-thioxo-1,2,3,4-tetrahydro-pyrimidine-5-carboxylic acid 3-trifluoromethyl-benzyl ester]", "values": [{"measurement": "IC50", "setting": "[1]", "value": "< 0.4", "unit": "µM"}, {"measurement": "IC50", "setting": "[2]", "value": "< 1", "unit": "µM"}]}
{"smiles": "CC1=C(C(=O)OC(C)CCc2cccs2)C(CF)NC(=S)N1", "note": "(stereo not drawn) [74′, 4-fluoromethyl-6-methyl-2-thioxo-1,2,3,4-tetrahydro-pyrimidine-5-carboxylic acid 1-methyl-3-thiophen-2-yl-propyl ester]", "values": [{"measurement": "IC50", "setting": "[1]", "value": 7, "unit": "µM"}, {"measurement": "IC50", "setting": "[2]", "value": "1 to 10", "unit": "µM"}]}
{"smiles": "CC1=C(C(=O)OCn2nnc3ccccc32)CNC(=S)N1", "note": "[Compound 225, 6-methyl-2-thioxo-1,2,3,4-tetrahydro-pyrimidine-5-carboxylic acid benzotriazol-1-ylmethyl ester]", "values": [{"measurement": "IC50", "setting": "[1]", "value": "> 100", "unit": "µM"}, {"measurement": "IC50", "setting": "[2]", "value": "> 20", "unit": "µM"}]}
{"smiles": "CC1=C(C(=O)OCCc2ccsc2)C2(CCCC2)NC(=S)N1", "note": "[29′, 9-methyl-7-thioxo-6,8-diaza-spiro[4.5]dec-9-ene-10-carboxylic acid 2-thiophen-3-yl-ethyl ester]", "values": [{"measurement": "IC50", "setting": "[1]", "value": 12, "unit": "µM"}, {"measurement": "IC50", "setting": "[2]", "value": "10 to 20", "unit": "µM"}]}
{"smiles": "CC1=C(C(=O)OCCc2cccs2)CNC(=S)N1", "note": "[Compound 206, 6-methyl-2-thioxo-1,2,3,4-tetrahydro-pyrimidine-5-carboxylic acid 2-thiophen-2-yl-ethyl ester]", "values": [{"measurement": "IC50", "setting": "[1]", "value": 0.6, "unit": "µM"}, {"measurement": "IC50", "setting": "[2]", "value": "< 1", "unit": "µM"}]}
{"smiles": "CC1=C(C(=O)OCCc2nc3ccccc3o2)CNC(=S)N1", "note": "[Compound 265, 6-methyl-2-thioxo-1,2,3,4-tetrahydro-pyrimidine-5-carboxylic acid 2-benzoxazol-2-yl-ethyl ester]", "values": [{"measurement": "IC50", "setting": "[1]", "value": 6, "unit": "µM"}, {"measurement": "IC50", "setting": "[2]", "value": "1 to 10", "unit": "µM"}]}
{"smiles": "CC1=C(C(=O)OCCc2ccsc2F)C(CF)NC(=S)N1", "note": "(stereo not drawn) [1′, 4-fluoromethyl-6-methyl-2-thioxo-1,2,3,4-tetrahydro-pyrimidine-5-carboxylic acid 2-(2-fluoro-thiophen-3-yl)-ethyl ester]", "values": [{"measurement": "IC50", "setting": "[1]", "value": 1.8, "unit": "µM"}, {"measurement": "IC50", "setting": "[2]", "value": "1 to 10", "unit": "µM"}]}
{"smiles": "CC1=C(C(=O)OCCc2cccc(Cl)c2)C(COC(=O)OCCOC(=O)c2ccccc2)NC(=S)N1", "note": "(stereo not drawn) [76″, 4-(2-benzoyloxy-ethoxycarbonyloxymethyl)-6-methyl-2-thioxo-1,2,3,4-tetrahydro-pyrimidine-5-carboxylic acid 2-(3-chloro-phenyl)-ethyl ester]", "values": [{"measurement": "IC50", "setting": "[1]", "value": 0.9, "unit": "µM"}, {"measurement": "IC50", "setting": "[2]", "value": "< 1", "unit": "µM"}]}
{"smiles": "CC1=C(C(=O)OCc2ccc(C)s2)CNC(=S)N1", "note": "[Compound 232, 6-methyl-2-thioxo-1,2,3,4-tetrahydro-pyrimidine-5-carboxylic acid 5-methyl-thiophen-2-ylmethyl ester]", "values": [{"measurement": "IC50", "setting": "[1]", "value": 20, "unit": "µM"}, {"measurement": "IC50", "setting": "[2]", "value": "10 to 20", "unit": "µM"}]}
{"smiles": "C=CCC(C=C)OC(=O)C1=C(C)NC(=S)NC1", "note": "(stereo not drawn) [Compound 55, 6-methyl-2-thioxo-1,2,3,4-tetrahydro-pyrimidine-5-carboxylic acid 1-vinyl-but-3-enyl ester]", "values": [{"measurement": "IC50", "setting": "[1]", "value": 2.5, "unit": "µM"}, {"measurement": "IC50", "setting": "[2]", "value": "1 to 10", "unit": "µM"}]}
{"smiles": "CC1=C(C(=O)OCc2ccsc2)C(CF)NC(=S)N1", "note": "(stereo not drawn) [Compound 253, 4-fluoromethyl-6-methyl-2-thioxo-1,2,3,4-tetrahydro-pyrimidine-5-carboxylic acid thiophen-3-ylmethyl ester]", "values": [{"measurement": "IC50", "setting": "[1]", "value": 13, "unit": "µM"}, {"measurement": "IC50", "setting": "[2]", "value": "10 to 20", "unit": "µM"}]}
{"smiles": "CC1=C(C(=O)OCc2cc(Cl)cc(Cl)c2)C(CF)NC(=S)N1", "note": "(stereo not drawn) [89′, 4-fluoromethyl-6-methyl-2-thioxo-1,2,3,4-tetrahydro-pyrimidine-5-carboxylic acid 3,5-dichloro-benzyl ester]", "values": [{"measurement": "IC50", "setting": "[1]", "value": 0.4, "unit": "µM"}, {"measurement": "IC50", "setting": "[2]", "value": "< 1", "unit": "µM"}]}
{"smiles": "CC1=C(C(=O)OCc2cccc(SC(F)(F)F)c2)C(CF)NC(=S)N1", "note": "(stereo not drawn) [72′, 4-fluoromethyl-6-methyl-2-thioxo-1,2,3,4-tetrahydro-pyrimidine-5-carboxylic acid 3-trifluoromethylsulfanyl-benzyl ester]", "values": [{"measurement": "IC50", "setting": "[1]", "value": "< 0.4", "unit": "µM"}, {"measurement": "IC50", "setting": "[2]", "value": "< 1", "unit": "µM"}]}
{"smiles": "CCOc1ccccc1COC(=O)C1=C(C)NC(=S)NC1", "note": "[Compound 66, 6-methyl-2-thioxo-1,2,3,4-tetrahydro-pyrimidine-5-carboxylic acid 2-ethoxy-benzyl ester]", "values": [{"measurement": "IC50", "setting": "[1]", "value": 0.5, "unit": "µM"}, {"measurement": "IC50", "setting": "[2]", "value": "< 1", "unit": "µM"}]}
{"smiles": "CC1=C(C(=O)OCc2ccc3ncsc3c2)CNC(=S)N1", "note": "[Compound 248, 6-methyl-2-thioxo-1,2,3,4-tetrahydro-pyrimidine-5-carboxylic acid benzothiazol-6-ylmethyl ester]", "values": [{"measurement": "IC50", "setting": "[1]", "value": 5, "unit": "µM"}, {"measurement": "IC50", "setting": "[2]", "value": "1 to 10", "unit": "µM"}]}
{"smiles": "CSCCCOC(=O)C1=C(C)NC(=S)NC1CF", "note": "(stereo not drawn) [63′, 4-fluoromethyl-6-methyl-2-thioxo-1,2,3,4-tetrahydro-pyrimidine-5-carboxylic acid 3-methylsulfanyl-propyl ester]", "values": [{"measurement": "IC50", "setting": "[1]", "value": "> 100", "unit": "µM"}, {"measurement": "IC50", "setting": "[2]", "value": "> 20", "unit": "µM"}]}
